Laboratory results published in ChEMBL document CHEMBL1681651, “A broad spectrum anticancer nucleoside with selective toxicity against human colon cells in vitro” (2011).

What was measured:
Assay type in all cases: functional
SK-MEL-2 = experiment: Growth inhibition of human SK-MEL-2 cells assessed as cell growth at 10 uM after 48 hrs by SRB assay; settings: SK-MEL-2, 48 h, read-out: Activity
CCRF-CEM [1] = experiment: Growth inhibition of human CCRF-CEM cells after 48 hrs by […] growth inhibition assay
CAKI-1 = experiment: Growth inhibition of human Caki1 cells after 48 hrs by […] growth inhibition assay; settings: CAKI-1, 48 h
EKVX = experiment: Growth inhibition of human EKVX cells assessed as cell growth at 0.1 uM after 48 hrs by SRB assay; settings: read-out: Activity
A549 = experiment: Growth inhibition of human A549 cells assessed as cell growth at 1 uM after 48 hrs by SRB assay; settings: A549, 48 h, read-out: Activity
UO-31 [2] = experiment: Growth inhibition of human UO31 cells assessed as cell growth at 10 uM after 48 hrs by SRB assay; settings: UO-31, 48 h, read-out: Activity
SN12C = experiment: Growth inhibition of human SN12C cells assessed as cell growth at 1 uM after 48 hrs by SRB assay; settings: read-out: Activity
ACHN = experiment: Growth inhibition of human ACHN cells assessed as cell growth at 10 uM after 48 hrs by SRB assay; settings: read-out: Activity
OVCAR-4 [3] = experiment: Growth inhibition of human OVCAR4 cells assessed as cell growth at 10 uM after 48 hrs by SRB assay; settings: OVCAR-4, 48 h, read-out: Activity
T47D = experiment: Growth inhibition of human T47D cells assessed as cell growth at 1 mM after 48 hrs by SRB assay; settings: read-out: Activity
Malme-3M [4] = experiment: Growth inhibition of human MALME-3M cells assessed as cell growth at 0.1 uM after 48 hrs by SRB assay; settings: read-out: Activity
KM12 [5] = experiment: Growth inhibition of human KM12 cells assessed as cell growth at 1 mM after 48 hrs by SRB assay; settings: KM12, 48 h, read-out: Activity
NCI-H460 [6] = experiment: Growth inhibition of human NCI-H460 cells assessed as cell growth at 1 uM after 48 hrs by SRB assay; settings: NCI-H460, 48 h, read-out: Activity
Malme-3M [7] = experiment: Growth inhibition of human MALME-3M cells assessed as cell growth at 10 uM after 48 hrs by SRB assay; settings: read-out: Activity
TK-10 = experiment: Growth inhibition of human TK10 cells assessed as cell growth at 1 mM after 48 hrs by SRB assay; settings: TK-10, 48 h, read-out: Activity
SNB-75 = experiment: Growth inhibition of human SNB75 cells assessed as cell growth at 0.1 uM after 48 hrs by SRB assay; settings: SNB-75, 48 h, read-out: Activity
U-251 [8] = experiment: Growth inhibition of human U251 cells assessed as cell growth at 1 uM after 48 hrs by SRB assay; settings: U-251, 48 h, read-out: Activity
NCI-H460 [9] = experiment: Growth inhibition of human NCI-H460 cells assessed as cell growth at 0.1 uM after 48 hrs by SRB assay; settings: NCI-H460, 48 h, read-out: Activity
OVCAR-5 = experiment: Growth inhibition of human OVCAR5 cells assessed as cell growth at 0.1 uM after 48 hrs by SRB assay; settings: OVCAR-5, 48 h, read-out: Activity
HOP-62 = experiment: Growth inhibition of human HOP62 cells after 48 hrs by […] growth inhibition assay; settings: HOP-62, 48 h
KM12 [10] = experiment: Growth inhibition of human KM12 cells assessed as cell growth at 10 uM after 48 hrs by SRB assay; settings: KM12, 48 h, read-out: Activity
LOX IMVI = experiment: Growth inhibition of human LOXIMVI cells assessed as cell growth at 100 uM after 48 hrs by SRB assay; settings: read-out: Activity
CCRF-CEM [11] = experiment: Growth inhibition of human CCRF-CEM cells assessed as cell growth at 1 uM after 48 hrs by SRB assay; settings: read-out: Activity
HT-29 [12] = experiment: Growth inhibition of human HT-29 cells after 48 hrs by […] growth inhibition assay; settings: HT-29, 48 h
M14 = experiment: Growth inhibition of human M14 cells after 48 hrs by […] growth inhibition assay; settings: M14, 48 h
HCT-15 = experiment: Growth inhibition of human HCT15 cells assessed as cell growth at 100 uM after 48 hrs by SRB assay; settings: HCT-15, 48 h, read-out: Activity
UO-31 [13] = experiment: Growth inhibition of human UO31 cells assessed as cell growth at 1 uM after 48 hrs by SRB assay; settings: UO-31, 48 h, read-out: Activity
HT-29 [14] = experiment: Growth inhibition of human HT-29 cells assessed as cell growth at 10 uM after 48 hrs by SRB assay; settings: HT-29, 48 h, read-out: Activity
SK-MEL-5 = experiment: Growth inhibition of human SK-MEL-5 cells assessed as cell growth at 100 uM after 48 hrs by SRB assay; settings: SK-MEL-5, 48 h, read-out: Activity
BT-549 = experiment: Growth inhibition of human BT549 cells assessed as cell growth at 0.1 uM after 48 hrs by SRB assay; settings: BT-549, 48 h, read-out: Activity
OVCAR-8 [15] = experiment: Growth inhibition of human OVCAR8 cells assessed as cell growth at 10 uM after 48 hrs by SRB assay; settings: OVCAR-8, 48 h, read-out: Activity
MCF7 = experiment: Growth inhibition of human MCF7 cells assessed as cell growth at 100 uM after 48 hrs by SRB assay; settings: MCF7, 48 h, read-out: Activity
U-251 [16] = experiment: Growth inhibition of human U251 cells assessed as cell growth at 0.1 uM after 48 hrs by SRB assay; settings: U-251, 48 h, read-out: Activity
OVCAR-4 [17] = experiment: Growth inhibition of human OVCAR4 cells after 48 hrs by […] growth inhibition assay; settings: OVCAR-4, 48 h
OVCAR-8 [18] = experiment: Growth inhibition of human OVCAR8 cells assessed as cell growth at 0.1 uM after 48 hrs by SRB assay; settings: OVCAR-8, 48 h, read-out: Activity
[19] = read-out: LC50 (the source's name)
[20] = read-out: pLC50 (the source's name) (converted)

`CNC(=O)NC[C@H]1O[C@@H](n2cnc3c(NC(=O)Nc4ccccc4)ncnc32)[C@H](O[Si](C)(C)C(C)(C)C)[C@@H]1CC(=O)N(C)OC` showed a growth at 10 µM (SK-MEL-2) of 92%, a GI50 (CCRF-CEM [1]; read-out: GI50) of 6.37 µM and an LC50 (lethal concentration, 50% net cell kill) (CCRF-CEM [1]; read-out: LC50) of over 100 µM. It also gave a TGI (CCRF-CEM [1]; read-out: TGI) of over 100 µM, a GI50 (CCRF-CEM [1]; read-out: pGI50 (converted)) of 6.31 µM and an LC50 (lethal concentration, 50% net cell kill) (CCRF-CEM [1]; read-out: pLC50 (converted)) of over 100 µM. It also gave a TGI (CCRF-CEM [1]; read-out: pTGI (converted)) of over 100 µM, a GI50 (CAKI-1; read-out: GI50) of 53.8 µM and a CC50 (CAKI-1; [19]) of over 100 µM. It also gave a TGI (CAKI-1; read-out: TGI) of over 100 µM, a GI50 (CAKI-1; read-out: pGI50 (converted)) of 53.7 µM and a CC50 (CAKI-1; [20]) of over 100 µM. The TGI (CAKI-1; read-out: pTGI (converted)) was over 100 µM, the growth at 0.1 µM (EKVX) was 94% and the growth at 1 µM (A549) was 100%. It also gave a growth at 10 µM (UO-31 [2]) of 82%, a growth at 1 µM (SN12C) of 104% and a growth at 10 µM (ACHN) of 95%. For the same compound, the growth at 10 µM (OVCAR-4 [3]) was 96%, the growth at 1000 µM (T47D) was 17% and the growth at 0.1 µM (Malme-3M [4]) was 103%. It also gave a growth at 1000 µM (KM12 [5]) of 30%, a growth at 1 µM (NCI-H460 [6]) of 93% and a growth at 10 µM (Malme-3M [7]) of 93%. For the same compound, the growth at 1000 µM (TK-10) was 17%, the growth at 0.1 µM (SNB-75) was 94% and the growth at 1 µM (U-251 [8]) was 101%. It also gave a growth at 0.1 µM (NCI-H460 [9]) of 96%, a growth at 0.1 µM (OVCAR-5) of 99% and a GI50 (HOP-62; read-out: GI50) of 24.9 µM. For the same compound, the CC50 (HOP-62; [19]) was over 100 µM, the TGI (HOP-62; read-out: TGI) was over 100 µM and the GI50 (HOP-62; read-out: pGI50 (converted)) was 25.1 µM. The CC50 (HOP-62; [20]) was over 100 µM, the TGI (HOP-62; read-out: pTGI (converted)) was over 100 µM and the growth at 10 µM (KM12 [10]) was 106%. The growth at 100 µM (LOX IMVI) was 43%, the growth at 1 µM (CCRF-CEM [11]) was 100% and the GI50 (HT-29 [12]; read-out: GI50) was 5.37 µM. It also gave a CC50 (HT-29 [12]; [19]) of over 100 µM, a TGI (HT-29 [12]; read-out: TGI) of over 100 µM and a GI50 (HT-29 [12]; read-out: pGI50 (converted)) of 5.37 µM. For the same compound, the CC50 (HT-29 [12]; [20]) was over 100 µM, the TGI (HT-29 [12]; read-out: pTGI (converted)) was over 100 µM and the GI50 (M14; read-out: GI50) was 15.2 µM. It also gave a CC50 (M14; [19]) of over 100 µM, a TGI (M14; read-out: TGI) of over 100 µM and a GI50 (M14; read-out: pGI50 (converted)) of 15.1 µM. The CC50 (M14; [20]) was over 100 µM, the TGI (M14; read-out: pTGI (converted)) was over 100 µM and the growth at 100 µM (HCT-15) was 40%. For the same compound, the growth at 1 µM (UO-31 [13]) was 89%, the growth at 10 µM (HT-29 [14]) was 100% and the growth at 100 µM (SK-MEL-5) was 38%. For the same compound, the growth at 0.1 µM (BT-549) was 95%, the growth at 10 µM (OVCAR-8 [15]) was 103% and the growth at 100 µM (MCF7) was 34%. The growth at 0.1 µM (U-251 [16]) was 97%, the GI50 (OVCAR-4 [17]; read-out: GI50) was 53 µM and the CC50 (OVCAR-4 [17]; [19]) was over 100 µM. The TGI (OVCAR-4 [17]; read-out: TGI) was over 100 µM, the GI50 (OVCAR-4 [17]; read-out: pGI50 (converted)) was 52.5 µM and the CC50 (OVCAR-4 [17]; [20]) was over 100 µM. It also gave a TGI (OVCAR-4 [17]; read-out: pTGI) of over 100 µM and a growth at 0.1 µM (OVCAR-8 [18]) of 107%.
